{"source": "paper PMC12352625", "about": "“Double crossed? Structural and computational studies of an unusually crosslinked haem in Methylococcus capsulatus cytochrome P460” (Chemical Science, 2025)", "biological_target": "T1, McP460 (cytochrome P460 from Methylococcus capsulatus (Bath)) (Methylococcus capsulatus, UniProt G1UBD9)", "T1 construct": "gene MCA0524; recombinant from E. coli; covalent c-type P460 haem (Cys140, Cys143, His144, Lys78)", "T1 sequence (G1UBD9 18-161)": "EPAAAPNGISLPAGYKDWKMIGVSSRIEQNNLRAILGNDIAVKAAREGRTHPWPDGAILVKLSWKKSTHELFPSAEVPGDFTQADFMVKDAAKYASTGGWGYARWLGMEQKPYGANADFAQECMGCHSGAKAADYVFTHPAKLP", "assay": "DCPIP reduction assay; N2O by GC-MS; nitrite by Griess assay", "assay_type": "biochemical", "conditions": "5 uM enzyme, 6 uM PMS, 2 mM [Ru(NH3)6]Cl3, 0-1000 uM hydroxylamine for product assays; anaerobic or aerobic"}
{"molecule": "NO", "note": "[hydroxylamine]", "values": [{"measurement": "DCPIP reduction assay; N2O by GC-MS; nitrite by Griess assay", "value": "assays were carried out to assess the protein's ability to oxidise hydroxylamine, and product formation"}]}
